pIC50: −log10 of the molar value.
Target: human IDO1 (Homo sapiens, UniProt P14902)
Assay: Assessment of human IDO-1 inhibitory activity in HEK cells (human IDO1/HEK293 cells, kynurenine read-out with Ehrlich reagent, absorbance 490 nm)
Type: cell-based
Parameters: expressed in transfected cells
Details: HEK Human IDO-1 cellular assay
Method in brief: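 Kynurenine output from stably IDO1-transfected HEK293 cells (10,000/well, phenol red-free RPMI, 10% FBS) after 20 h compound exposure at 37 °C. The reaction was stopped with 0.2% TCA and heated 30 min at 50 °C, then the supernatant was mixed with Ehrlich reagent and read at 490 nm. IC50 was set against DMSO and a 500 nM reference standard as 0 and 100% inhibition.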

Chain of human IDO1 (P14902 whole entry): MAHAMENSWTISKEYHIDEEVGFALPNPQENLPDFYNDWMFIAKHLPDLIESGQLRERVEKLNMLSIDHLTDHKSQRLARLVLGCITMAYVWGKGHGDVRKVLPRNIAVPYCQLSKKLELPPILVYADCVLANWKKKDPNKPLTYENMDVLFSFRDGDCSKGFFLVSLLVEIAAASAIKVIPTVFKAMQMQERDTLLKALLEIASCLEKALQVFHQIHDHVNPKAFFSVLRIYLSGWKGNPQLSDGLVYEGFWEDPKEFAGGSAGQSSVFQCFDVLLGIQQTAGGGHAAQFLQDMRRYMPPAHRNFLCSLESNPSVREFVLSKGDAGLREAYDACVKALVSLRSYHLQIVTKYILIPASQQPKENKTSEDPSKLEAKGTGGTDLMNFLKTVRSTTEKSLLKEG

Row | SMILES | pIC50
1 | CCOc1ncc(Nc2cc([C@H](CC)CC(=O)O)ccc2N(CC)C2CCCCC2)cn1 (single isomer, unassigned) [Example 287] | > 8.30
2 | COCC(CC(=O)O)c1ccc(N(CC(C)C)CC(C)C)c(NC(=O)Nc2cc(C)on2)c1 (single isomer, unassigned) [999-1] | > 7.30
3 | CCC(CC(=O)O)c1ccc(N(CC)C2CCCOC2)c(Nc2ccc(C#N)cc2)c1 (single isomer, unassigned) [Example 70, 3-(3-((4-cyanophenyl)amino)-4-(ethyl(tetrahydro-2H-pyran-3-yl)amino)phenyl)pentanoic acid] | > 8.30
4 | CCN(c1ccc(C(C)(C)CC(=O)O)cc1Nc1ccc2nc(C)sc2c1)C1CCOCC1 [Example 164, 3-(4-(ethyl(tetrahydro-2H-pyran-4-yl)amino)-3-((2-methylbenzo[d]thiazol-6-yl)amino)phenyl)-3-methylbutanoic acid] | > 7.30
5 | CCC(CC(=O)O)c1ccc(N(CC2CC2)C2CCOCC2)c(Nc2ccc3nc(C)sc3c2)c1 (single isomer, unassigned) [Example 701, 3-(4-((Cyclopropylmethyl)(tetrahydro-2H-pyran-4-yl)amino)-3-((2-methylbenzo[d]thiazol-6-yl)amino)phenyl)pentanoic acid] | > 7.30
6 | CC[C@H](CC(=O)O)c1ccc(N2CCOC[C@@H]2C(C)C)c(Nc2ccc3c(c2)OC(F)(F)O3)c1 (single isomer, unassigned) [Example 93] | > 7.30
7 | COCC(CC(=O)O)c1ccc(N(CC(C)C)C2CCCCC2)c(NC(=O)Cc2ccc(Cl)cc2F)c1 (single isomer, unassigned) [Example 1245, 3-(3-(2-(4-Chloro-2-fluorophenyl)acetamido)-4-(cyclohexyl(isobutyl)amino)phenyl)-4-methoxybutanoic acid] | > 8.30
8 | CCOc1ccc(NC(=O)Nc2cc(C(C)CC(=O)O)ccc2N(CC(C)C)C2CCOCC2)cc1 (single isomer, unassigned) [Example 960, 3-(3-(3-(4-ethoxyphenyl)ureido)-4-(isobutyl(tetrahydro-2H-pyran-4-yl)amino)phenyl)butanoic acid] | > 7.30
9 | CCc1ccc(Nc2cc(C(CC)CC(=O)O)ccc2N2CCC[C@H]2C(C)(C)O)cc1 (single isomer, unassigned) [Example 819] | < 7.30
10 | CCN(c1ccc(C(C)CC(=O)O)cc1NC(=O)Nc1ccc(Cl)cc1F)C1CCOCC1 (single isomer, unassigned) [Example 637 E1, 3-(3-(3-(4-Chloro-2-fluorophenyl)ureido)-4-(ethyl(tetrahydro-2H-pyran-4-yl)amino)phenyl)butanoic acid] | > 8.30
11 | CC[C@@H](CC(=O)O)c1ccc(N(CC)C2CCOCC2)c(NC(=O)Nc2ccc(Cl)nc2)c1 (single isomer, unassigned) [Example 495] | < 7.30
12 | CCC(CC(=O)O)c1ccc(N(CC(C)C)C2CCCCC2)c(NC(=O)Cc2ccc(Cl)cc2F)c1 (single isomer, unassigned) [Example 1096 E1] | > 8.30
13 | COCC(CC(=O)O)c1ccc(N(CC(C)C)C2CCCCC2)c(NC(=O)Nc2ccc(OC(F)(F)F)cc2)c1 (single isomer, unassigned) [Example 1244, 3-(4-(Cyclohexyl(isobutyl)amino)-3-(3-(4-(trifluoromethoxy)phenyl)ureido)phenyl)-4-methoxybutanoic acid] | > 8.30
14 | CC[C@H](CC(=O)O)c1ccc(N(CC)C2CCOCC2)c(Nc2cn3ccnc3cn2)c1 (single isomer, unassigned) [Example 523] | < 7.30
15 | COc1ncc(Nc2cc(C(C)CC(=O)O)ccc2N(CC(C)(C)O)C2CCOCC2)cn1 (single isomer, unassigned) [Example 192, 3-(4-((2-hydroxy-2-methylpropyl)(tetrahydro-2H-pyran-4-yl)amino)-3-((2-methoxypyrimidin-5-yl)amino)phenyl)butanoic acid] | < 7.30
16 | CC[C@@H](CC(=O)O)c1ccc(N(CC)C2CCOCC2)c(Nc2nc3cc(C)nn3cc2F)c1 (single isomer, unassigned) [Example 469] | < 7.30
17 | CCC(CC(=O)O)c1cc(F)c(N(CC(C)C)CC(C)C)c(Nc2ccc(Cl)c(OCC(F)(F)F)c2)c1 (single isomer, unassigned) [Example 118, 3-(3-((4-chloro-3-(2,2,2-trifluoroethoxy)phenyl)-amino)-4-(diisobutylamino)-5-fluorophenyl)pentanoic acid] | > 7.30
18 | COCC(CC(=O)O)c1ccc(N(CC2CC2)C2CCOCC2)c(Nc2ccc(C#N)cc2)c1 (single isomer, unassigned) [Example 687, 3-(3-((4-cyanophenyl)amino)-4-((cyclopropylmethyl) (tetrahydro-2H-pyran-4-yl)amino)phenyl)-4-methoxybutanoic acid] | > 7.30
19 | CCN(c1ccc(C(C)CC(=O)O)cc1Nc1ccc2c(c1)OC(F)(F)O2)C1CCOCC1 (single isomer, unassigned) [Example 616, 3-(3-((2,2-difluorobenzo[d] [1,3]dioxol-5-yl)amino)-4-(ethyl(tetrahydro-2H-pyran-4-yl)amino)phenyl)butanoic acid] | > 8.30
20 | CCc1ccc(Nc2cc(C(C)(C)CC(=O)O)ccc2N2C[C@@H](C)O[C@@H](C)C2)cc1 [Example 734, 3-(4-((2S,6R)-2,6-dimethylmorpholino)-3-((4-ethylphenyl)amino)phenyl)-3-methylbutanoic acid] | < 7.30
21 | CCCN(CC1CC1)c1ccc(C(CC)CC(=O)O)cc1Nc1cnc(OCC)nc1 (single isomer, unassigned) [Example 657, 3-(4-((cyclopropylmethyl) (propyl)amino)-3-((2-ethoxypyrimidin-5-yl)amino)phenyl)pentanoic acid] | > 7.30
22 | CC[C@H](CC(=O)O)c1ccc(N(CC(C)C)C2CCS(=O)(=O)CC2)c(NC(=O)Nc2ccc(OC)cc2F)c1 (single isomer, unassigned) [Example 211] | < 7.30
23 | COCC(CC(=O)O)c1ccc(N(CC2CC2)C2CCOCC2)c(Nc2ccc(Cl)c(OCC3CC3)c2)c1 (single isomer, unassigned) [Example 683, 3-(3-((4-chloro-3-(cyclopropylmethoxy)phenyl)amino)-4-((cyclopropylmethyl) (tetrahydro-2H-pyran-4-yl)amino)phenyl)-4-methoxybutanoic acid] | < 7.30
24 | CC[C@H](CC(=O)O)c1ccc(N(CC)C2CCOCC2)c(NC(=O)Nc2ccc(OC)cc2F)c1 (single isomer, unassigned) [Example 530] | > 8.30

Continued, values first:

Row | pIC50 | SMILES
25 | > 8.30 | COCC(CC(=O)O)c1ccc(N(CC(C)C)C2CCCCC2)c(NC(=O)Nc2ccc(C)cc2)c1 (racemic) [Example 988, (+/−)-3-(4-(Cyclohexyl(isobutyl)amino)-3-(3-(p-tolyl)ureido)phenyl)-4-methoxybutanoic acid]
26 | < 7.30 | CCC(CC(=O)O)c1ccc(N2CCC[C@H]2C(C)(C)O)c(Nc2cnc(OCC3CC3)nc2)c1 (single isomer, unassigned) [Example 822]
27 | < 7.30 | CCC(CC(=O)O)c1ccc(N2CCOC[C@H]2C(C)C)c(Nc2ccc3c(c2)OC(F)(F)O3)c1 (single isomer, unassigned) [Example 893]
28 | < 7.30 | CCC(CC(=O)O)c1ccc(N2C[C@@H](C)O[C@@H](C)C2)c(Nc2ccc3c(c2)OC(F)(F)O3)c1 (single isomer, unassigned) [Example 758]
29 | > 8.30 | CCOc1ncc(Nc2cc(C(CC)CC(=O)O)cc(F)c2N(CC(C)C)CC(C)C)cn1 (single isomer, unassigned) [Example 103, 3-(4-(diisobutylamino)-3-((2-ethoxypyrimidin-5-yl)amino)-5-fluorophenyl)pentanoic acid]
30 | > 8.30 | CCCN(c1ccc([C@@H](CC)CC(=O)O)cc1Nc1cnc(OCC)nc1)C1CCOCC1 (single isomer, unassigned) [Example 535]
31 | > 7.30 | COCC(CC(=O)O)c1ccc(N(CC2CC2)C2CCOCC2)c(Nc2ccc(C#N)c(C)c2)c1 (single isomer, unassigned) [Example 692, 3-(3-((4-cyano-3-methylphenyl)amino)-4-((cyclopropylmethyl) (tetrahydro-2H-pyran-4-yl)amino)phenyl)-4-methoxybutanoic acid]
32 | > 8.30 | CCC(CC(=O)O)c1ccc(N2CCOC[C@H]2C(C)C)c(Nc2ccc(Cl)cc2)c1 (single isomer, unassigned) [Example 900]
33 | > 7.30 | CC(C)(CC(=O)O)c1ccc(N2CCC[C@H]2C(C)(C)O)c(Nc2ccc(C#N)cc2)c1 [Example 809, (S)-3-(3-((4-cyanophenyl)amino)-4-(2-(2-hydroxypropan-2-yl)pyrrolidin-1-yl)phenyl)-3-methylbutanoic acid]
34 | > 8.30 | CCC(CC(=O)O)c1cc(F)c(N(CC(C)C)CC(C)C)c(NC(=O)Nc2ccc(Cl)cc2F)c1 (single isomer, unassigned) [981-1]
35 | > 8.30 | CCC(CC(=O)O)c1cc(F)c(N(CC(C)C)CC(C)C)c(Nc2ccc(Cl)c(OCC(F)(F)F)c2)c1 (single isomer, unassigned) [Example 102, 3-(3-((4-chloro-3-(2,2,2-trifluoroethoxy)phenyl)amino)-4-(diisobutylamino)-5-fluorophenyl)pentanoic acid]
36 | > 7.30 | CCN(c1ccc(C(CC(=O)O)c2ccccc2)cc1Nc1ccc(OC(F)F)cc1)C1CCOCC1 (single isomer, unassigned) [Example 583, 3-(3-((4-(difluoromethoxy)phenyl)amino)-4-(ethyl(tetrahydro-2H-pyran-4-yl)amino)phenyl)-3-phenylpropanoic acid]
37 | < 7.30 | CC[C@@H](CC(=O)O)c1ccc(N(CC)C2CCOCC2)c(Nc2ccn3nccc3n2)c1 (single isomer, unassigned) [Example 468]
38 | > 8.30 | CCOc1ccc(Nc2cc(C(CC)CC(=O)O)ccc2N(CC(C)C)C2CCCCC2)cc1 (single isomer, unassigned) [Example 313, 3-(4-(cyclohexyl(isobutyl)amino)-3-((4-ethoxyphenyl)amino)phenyl)pentanoic acid]

From patent publication US9790169B2, “IDO inhibitors” (BRISTOL-MYERS SQUIBB COMPANY, priority 2015, dated 2017)
